Laboratory results published in PubChem BioAssay AID330 (DTP/NCI, 2004).
Several values for one entry are separate records, joined by “and”; a condition that tells them apart may be missing. Identical values can stand only once. Toxic doses and inconclusive results are not listed. Peptide text beside a SMILES is read from it.

Tested on: P388 leukemia ip, CD2F1 mice, survival T/C
Assay: NCI In Vivo Anticancer Drug Screen. Data for tumor model P388 Leukemia (intraperitoneal) in CD2F1 (CDF1) mice
Conditions: endpoint: median survival time, higher = longer survival
Outline: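 Mice carrying the transplanted tumor received test compound or vehicle. Survival was recorded in each group, and the value is the treated-group measurement divided by that of the vehicle-treated control group.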

[1] = dose: 50.0 mg/kg/injection, schedule: Q01DX005 (ip), vehicle: saline with Tween-80
[2] = dose: 100.0 mg/kg/injection, schedule: Q01DX005 (ip), vehicle: saline with Tween-80
[3] = dose: 200.0 mg/kg/injection, schedule: Q01DX005 (ip), vehicle: saline with Tween-80
[4] = dose: 12.5 mg/kg/injection, schedule: Q01DX005 (ip), vehicle: saline
[5] = dose: 25.0 mg/kg/injection, schedule: Q01DX005 (ip), vehicle: saline
[6] = dose: 50.0 mg/kg/injection, schedule: Q01DX005 (ip), vehicle: saline
[7] = dose: 50.0 mg/kg/injection, schedule: Q01DX009 (ip), vehicle: saline with Tween-80
[8] = dose: 100.0 mg/kg/injection, schedule: Q01DX009 (ip), vehicle: saline with Tween-80
[9] = dose: 200.0 mg/kg/injection, schedule: Q01DX009 (ip), vehicle: saline with Tween-80
[10] = dose: 100.0 mg/kg/injection, schedule: Q01DX005 (ip), vehicle: saline
[11] = dose: 200.0 mg/kg/injection, schedule: Q01DX005 (ip), vehicle: saline
[12] = dose: 50.0 mg/kg/injection, schedule: Q01DX009 (ip), vehicle: Klucel (hydroxypropylcellulose) (HPC)
[13] = dose: 100.0 mg/kg/injection, schedule: Q01DX009 (ip), vehicle: Klucel (hydroxypropylcellulose) (HPC)
[14] = dose: 200.0 mg/kg/injection, schedule: Q01DX009 (ip), vehicle: Klucel (hydroxypropylcellulose) (HPC)

`CC(=O)OCC1OC(N(CCCl)CCCl)C(OC(C)=O)C(OC(C)=O)C1OC(C)=O` (stereo unspecified) was tested, and the T/C (dose: 1.25 mg/kg/injection, schedule: Q01DX005 (ip), vehicle: distilled water + Tween-80) was 106 % of control, the T/C (dose: 2.5 mg/kg/injection, schedule: Q01DX005 (ip), vehicle: distilled water + Tween-80) was 110 % of control and 115 % of control and the T/C (dose: 5.0 mg/kg/injection, schedule: Q01DX005 (ip), vehicle: distilled water + Tween-80) was 110 % of control and 117 % of control and 119 % of control. For the same molecule, the T/C (dose: 10.0 mg/kg/injection, schedule: Q01DX005 (ip), vehicle: distilled water + Tween-80) was 173 % of control, the T/C (dose: 20.0 mg/kg/injection, schedule: Q01DX005 (ip), vehicle: distilled water + Tween-80) was 187 % of control [middle of 4 runs] and the T/C (dose: 40.0 mg/kg/injection, schedule: Q01DX005 (ip), vehicle: distilled water + Tween-80) was 199 % of control.

With `O=C(Nc1ccccc1)Nc1c2c(nc3ccccc13)CCCCC2` the T/C [1] was 86 % of control, the T/C [2] was 89 % of control and the T/C [3] was 90 % of control.

For `Oc1ccc2ccccc2c1C(c1ccc(Cl)cc1)c1c(O)ccc2ccccc12`, the T/C [1] was 100 % of control, the T/C [2] was 101 % of control and the T/C [3] was 107 % of control.

In the case of `CCCCC(CC)CN(CC(CC)CCCC)C(=O)C(C)O` (stereo unspecified), the T/C [1] is reported as 105 % of control, the T/C [2] is reported as 103 % of control and the T/C [3] is reported as 108 % of control.

For `CCN(CC)CC(O)c1c(OC)ccc2ccccc12` (stereo unspecified), the T/C [4] was 96 % of control, the T/C [5] was 96 % of control and the T/C [6] was 104 % of control and 97 % of control.

`CCOC(=O)c1ccc(NC(=O)OCc2ccccc2)cc1` was tested, and the T/C [7] was 91 % of control, the T/C [8] was 86 % of control and the T/C [9] was 96 % of control. The T/C (dose: 400.0 mg/kg/injection, schedule: Q01DX009 (ip), vehicle: saline with Tween-80) was 107 % of control.

`COc1cc2c(cc1OC)C13CCN4CC5=CCOC6CC(=O)N2C1C6C5C3C4` (stereo unspecified) (tested in a mixture with another compound) was tested, and the T/C [4] was 90 % of control, the T/C [5] was 95 % of control and the T/C [6] was 98 % of control.

`O=C1CN(CCCO)CC(=O)N2Cc3ccccc3CN12` was tested, and the T/C [6] was 94 % of control, the T/C [10] was 100 % of control and the T/C [11] was 99 % of control.

In the case of `CN1Cc2c(cc(CN3CCCCC3)n2C)C(c2ccc(Br)cc2)C1` (stereo unspecified), the T/C (dose: 15.0 mg/kg/injection, schedule: Q01DX005 (ip), vehicle: saline with Tween-80) is reported as 100 % of control, the T/C (dose: 30.0 mg/kg/injection, schedule: Q01DX005 (ip), vehicle: saline with Tween-80) is reported as 100 % of control and the T/C (dose: 60.0 mg/kg/injection, schedule: Q01DX005 (ip), vehicle: saline with Tween-80) is reported as 101 % of control.

In the case of `C=C1CCN(c2ccc(F)cc2)C1=O`, the T/C (dose: 4.0 mg/kg/injection, schedule: Q01DX009 (ip), vehicle: saline + alcohol) is reported as 100 % of control and 103 % of control and 90 % of control, the T/C (dose: 8.0 mg/kg/injection, schedule: Q01DX009 (ip), vehicle: saline + alcohol) is reported as 104 % of control and 107 % of control and 94 % of control and the T/C (dose: 16.0 mg/kg/injection, schedule: Q01DX009 (ip), vehicle: saline + alcohol) is reported as 110 % of control and 97 % of control. For the same molecule, the T/C (dose: 32.0 mg/kg/injection, schedule: Q01DX009 (ip), vehicle: saline + alcohol) was 98 % of control and 103 % of control and 104 % of control and the T/C (dose: 64.0 mg/kg/injection, schedule: Q01DX009 (ip), vehicle: saline + alcohol) was 98 % of control and 100 % of control and 95 % of control.

In the case of `Cc1c2ccncc2c(CN2C(=O)c3ccccc3C2=O)c2c3ccccc3n(C)c12`, the T/C (dose: 12.5 mg/kg/injection, schedule: Q04DX002 (ip), vehicle: saline with Tween-80) is reported as 102 % of control, the T/C (dose: 25.0 mg/kg/injection, schedule: Q04DX002 (ip), vehicle: saline with Tween-80) is reported as 100 % of control and the T/C (dose: 50.0 mg/kg/injection, schedule: Q04DX002 (ip), vehicle: saline with Tween-80) is reported as 98 % of control. For the same molecule, the T/C (dose: 100.0 mg/kg/injection, schedule: Q04DX002 (ip), vehicle: saline with Tween-80) was 95 % of control.

With `O=[N+]([O-])/C=C/c1ccccc1Cl` the T/C (dose: 10.0 mg/kg/injection, schedule: Q01DX009 (ip), vehicle: other) was 115 % of control and the T/C (dose: 30.0 mg/kg/injection, schedule: Q04DX003 (ip), vehicle: other) was 118 % of control.

`CC1(O)c2ccccc2-c2nc3ccccc3nc21` (stereo unspecified) was tested, and the T/C (dose: 100.0 mg/kg/injection, schedule: Q04DX003 (ip), vehicle: saline sonified) was 110 % of control, the T/C (dose: 200.0 mg/kg/injection, schedule: Q04DX003 (ip), vehicle: saline sonified) was 110 % of control and the T/C (dose: 400.0 mg/kg/injection, schedule: Q04DX003 (ip), vehicle: saline sonified) was 100 % of control.

With `O=C(N/N=C/c1ccc(O)c(S(=O)(=O)O)c1)C(=O)N/N=C/c1ccc(O)c(S(=O)(=O)O)c1` the T/C [12] was 101 % of control, the T/C [13] was 108 % of control and the T/C [14] was 108 % of control.

In the case of `CCCCCC#CC(=O)OC`, the T/C (dose: 25.0 mg/kg/injection, schedule: Q01DX009 (ip), vehicle: saline with Tween-80) is reported as 109 % of control, the T/C [7] is reported as 109 % of control and the T/C [8] is reported as 104 % of control. For the same molecule, the T/C [9] was 118 % of control.

In the case of `Nc1cccc2ccccc12`, the T/C (dose: 100.0 mg/kg/injection, schedule: Q04DX003 (ip), vehicle: saline with Tween-80) is reported as 94 % of control.

With `CC(C)C(N)C(=O)NCC(=O)NC(CO)C(=O)NC(CCC(=O)O)C(=O)O` (stereo unspecified) (H-VGSE-OH; configuration not given here) the T/C (dose: 10.0 mg/kg/injection, schedule: Q01DX005 (ip), vehicle: water) was 100 % of control, the T/C (dose: 20.0 mg/kg/injection, schedule: Q01DX005 (ip), vehicle: water) was 102 % of control and the T/C (dose: 40.0 mg/kg/injection, schedule: Q01DX005 (ip), vehicle: water) was 100 % of control. The T/C (dose: 80.0 mg/kg/injection, schedule: Q01DX005 (ip), vehicle: water) was 97 % of control and the T/C (dose: 160.0 mg/kg/injection, schedule: Q01DX005 (ip), vehicle: water) was 104 % of control.

In the case of `O=C(/C=C/c1ccccc1)OCC1=C[C@@H](O)[C@@H]2C=CO[C@@H](OC3OC(CO)C(O)C(O)C3O)[C@H]12` (stereo partly specified), the T/C (dose: 12.5 mg/kg/injection, schedule: Q01DX005 (ip), vehicle: Klucel (hydroxypropylcellulose) (HPC)) is reported as 100 % of control, the T/C (dose: 25.0 mg/kg/injection, schedule: Q01DX005 (ip), vehicle: Klucel (hydroxypropylcellulose) (HPC)) is reported as 93 % of control and the T/C (dose: 50.0 mg/kg/injection, schedule: Q01DX005 (ip), vehicle: Klucel (hydroxypropylcellulose) (HPC)) is reported as 112 % of control. The T/C (dose: 100.0 mg/kg/injection, schedule: Q01DX005 (ip), vehicle: Klucel (hydroxypropylcellulose) (HPC)) was 118 % of control and the T/C (dose: 200.0 mg/kg/injection, schedule: Q01DX005 (ip), vehicle: Klucel (hydroxypropylcellulose) (HPC)) was 115 % of control.

`OC1CCC(O)C1` (stereo unspecified) was tested, and the T/C [6] was 100 % of control, the T/C [10] was 105 % of control and the T/C [11] was 98 % of control.

With `C=COC(=O)N(C)C` the T/C (dose: 25.0 mg/kg/injection, schedule: Q01DX009 (ip), vehicle: saline) was 110 % of control, the T/C (dose: 50.0 mg/kg/injection, schedule: Q01DX009 (ip), vehicle: saline) was 118 % of control and the T/C (dose: 100.0 mg/kg/injection, schedule: Q01DX009 (ip), vehicle: saline) was 115 % of control. For the same molecule, the T/C (dose: 200.0 mg/kg/injection, schedule: Q01DX009 (ip), vehicle: saline) was 120 % of control.

For `C/C(=N\NC(=O)c1ccncc1)c1cccc(/C(C)=N/NC(=O)c2ccncc2)n1.O=S(=O)([O-])[O-].[Fe+2]`, the T/C (dose: 12.5 mg/kg/injection, schedule: Q01DX005 (ip), vehicle: saline with Tween-80) was 97 % of control, the T/C (dose: 25.0 mg/kg/injection, schedule: Q01DX005 (ip), vehicle: saline with Tween-80) was 100 % of control and the T/C [1] was 87 % of control and 95 % of control.

For `CCOCCOCCOC(C)OC(C)Cc1ccc2c(c1)OCO2` (stereo unspecified), the T/C [1] was 106 % of control, the T/C [2] was 95 % of control and the T/C [3] was 112 % of control.

In the case of `COc1ccc2c(c1OC)C1NCCc3cc4c(cc3C1(OC)C2=O)OCO4` (stereo unspecified), the T/C (dose: 25.0 mg/kg/injection, schedule: Q01DX005 (ip), vehicle: distilled water + Tween-80 + alcohol) is reported as 109 % of control, the T/C (dose: 50.0 mg/kg/injection, schedule: Q01DX005 (ip), vehicle: distilled water + Tween-80 + alcohol) is reported as 104 % of control and the T/C (dose: 100.0 mg/kg/injection, schedule: Q01DX005 (ip), vehicle: distilled water + Tween-80 + alcohol) is reported as 107 % of control. The T/C (dose: 200.0 mg/kg/injection, schedule: Q01DX005 (ip), vehicle: distilled water + Tween-80 + alcohol) was 103 % of control.

In the case of `CCOP(=O)(O)CC(=O)NC(CC(=O)O)C(=O)O` (stereo unspecified), the T/C [12] is reported as 100 % of control and 111 % of control, the T/C [13] is reported as 103 % of control and 108 % of control and the T/C [14] is reported as 106 % of control.

`COc1cccc2c1C(=O)c1c(O)c3c(c(O)c1C2=O)C[C@@](O)(C(=O)CO)C[C@@H]3OC1CC(NC(=O)CN)C(O)C(C)O1` (stereo partly specified) was tested, and the T/C (dose: 25.0 mg/kg/injection, schedule: Q01DX009 (ip), vehicle: other) was 93 % of control, the T/C (dose: 50.0 mg/kg/injection, schedule: Q01DX009 (ip), vehicle: other) was 94 % of control and the T/C (dose: 100.0 mg/kg/injection, schedule: Q01DX009 (ip), vehicle: other) was 96 % of control.
